What is called IC50 is the concentration that inhibits the measured activity by half.

This passage reports IC50 and inhibition results from patent publication US9434711B2 (Janssen Pharmaceutica, NV, priority 2007, dated 2016).

The experiment has as its target canine TRPM8 (Canis lupus familiaris, UniProt Q1A7N1). In words: In Vitro Canine TRPM8 Functional Assay (Ca2+ fluorescence, icilin activation). It is filed as cell-based. The settings on record: for IC50: HEK293 cells stably expressing canine TRPM8, icilin activation, eight-point dose-response, read-out: IC50; for inhibition at 0.2 µM: compound at 0.2 μM, canine TRPM8, icilin activation, read-out: % Inh @ 0.2. An outline of the steps:
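Readout is the intracellular Ca2+ fluorescence change, measured by FLIPR or FDSS, in HEK293 cells stably expressing canine TRPM8. Potency (EC50 or IC50) is fitted from eight concentrations averaged over quadruplicate wells.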

canine TRPM8, sequence (Q1A7N1 1-1104): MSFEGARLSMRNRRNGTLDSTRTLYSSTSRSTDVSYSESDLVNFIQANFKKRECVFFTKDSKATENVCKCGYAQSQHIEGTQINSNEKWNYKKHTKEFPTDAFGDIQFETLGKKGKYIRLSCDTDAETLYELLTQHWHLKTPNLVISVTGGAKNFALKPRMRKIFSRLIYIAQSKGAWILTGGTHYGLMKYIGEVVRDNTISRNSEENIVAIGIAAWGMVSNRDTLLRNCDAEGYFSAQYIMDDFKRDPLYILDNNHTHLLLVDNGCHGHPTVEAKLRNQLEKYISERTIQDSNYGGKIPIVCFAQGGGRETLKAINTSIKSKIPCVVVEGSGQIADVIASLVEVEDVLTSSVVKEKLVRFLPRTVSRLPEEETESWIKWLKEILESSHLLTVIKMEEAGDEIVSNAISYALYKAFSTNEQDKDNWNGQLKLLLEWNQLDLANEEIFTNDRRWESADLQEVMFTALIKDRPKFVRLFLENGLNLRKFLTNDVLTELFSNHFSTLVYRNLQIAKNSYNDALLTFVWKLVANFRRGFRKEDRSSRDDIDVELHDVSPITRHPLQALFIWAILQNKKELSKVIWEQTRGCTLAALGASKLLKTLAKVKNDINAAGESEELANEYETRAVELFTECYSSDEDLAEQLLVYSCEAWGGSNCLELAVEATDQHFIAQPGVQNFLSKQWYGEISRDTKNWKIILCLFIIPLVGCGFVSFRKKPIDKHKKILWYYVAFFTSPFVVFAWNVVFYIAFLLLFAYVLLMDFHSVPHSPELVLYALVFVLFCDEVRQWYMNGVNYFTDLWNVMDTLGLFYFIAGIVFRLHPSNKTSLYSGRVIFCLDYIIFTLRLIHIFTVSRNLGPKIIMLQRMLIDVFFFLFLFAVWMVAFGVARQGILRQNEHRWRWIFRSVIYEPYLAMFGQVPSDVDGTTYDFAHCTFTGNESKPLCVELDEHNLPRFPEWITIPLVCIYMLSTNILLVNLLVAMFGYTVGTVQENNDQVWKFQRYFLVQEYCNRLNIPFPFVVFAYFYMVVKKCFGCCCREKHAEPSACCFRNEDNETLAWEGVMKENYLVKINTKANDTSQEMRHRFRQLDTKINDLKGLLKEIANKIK

Turning to `CNc1ccc(S(=O)(=O)N(CCC2CC2)c2cc3ccccc3s2)cc1` [Compound 688, N-(Benzo[b]thiophen-2-yl)-N-(2-cyclopropyl-ethyl)-4-methylamino-benzenesulfonamide], the IC50 was determined as 60.2 nM and the inhibition at 0.2 µM came out at 99%.

As to `CN(C)c1ccc(S(=O)(=O)N(CCC2CC2)c2cc3ccccc3s2)cc1` [Compound 689, N-(Benzo[b]thiophen-2-yl)-N-(2-cyclopropyl-ethyl)-4-dimethylamino-benzenesulfonamide], the IC50 is 52.8 nM and the inhibition at 0.2 µM came out at 86%.

On to `CNc1ccc(S(=O)(=O)N(CCC2CC2)c2sc3ccccc3c2Cl)cc1` [Compound 690, N-(3-Chloro-benzo[b]thiophen-2-yl)-N-(2-cyclopropyl-ethyl)-4-methylamino-benzenesulfonamide], for which the 50% inhibitory concentration (IC50) is 16.1 nM and the inhibition at 0.2 µM is 101%.

Take `CNc1ccc(S(=O)(=O)N(CCC2CC2)c2sc3ccccc3c2Cl)cc1Cl` [Compound 691, 3-Chloro-N-(3-chloro-benzo[b]thiophen-2-yl)-N-(2-cyclopropyl-ethyl)-4-methylamino-benzenesulfonamide]: the IC50 was 16 nM and the inhibition at 0.2 µM was determined as 102%.

Take `CNc1ccc(S(=O)(=O)N(CCC2CC2)c2sc3ccccc3c2Br)cc1Br` [Compound 692, 3-Bromo-N-(3-bromo-benzo[b]thiophen-2-yl)-N-(2-cyclopropyl-ethyl)-4-methylamino-benzenesulfonamide]: the IC50 turned out to be 7.2 nM and the inhibition at 0.2 µM is 101%.

With `CNc1ccc(S(=O)(=O)N(CCC2CC2)c2sc3ccccc3c2Br)cc1` [Compound 693, N-(3-Bromo-benzo[b]thiophen-2-yl)-N-(2-cyclopropyl-ethyl)-4-methylamino-benzenesulfonamide], the IC50 came to 25.2 nM and the inhibition at 0.2 µM turned out to be 103%.

For the compound `O=C(Nc1ccc(S(=O)(=O)N(Cc2ccc(F)c(C(F)(F)F)c2)c2sc3ccccc3c2Br)cc1)C(F)(F)F` [Compound 695, N-(3-Bromo-benzo[b]thiophen-2-yl)-N-(4-fluoro-3-trifluoromethyl-benzyl)-4-trifluoroacetamido-benzenesulfonamide], the IC50 turned out to be 17 nM and the inhibition at 0.2 µM turned out to be 101%.

As for `COC(=O)c1ccc(S(=O)(=O)N(Cc2ccc(F)c(C(F)(F)F)c2)c2sc3ccccc3c2C2CCC2)cc1` [Compound 696, N-(3-Cyclobutyl-benzo[b]thiophen-2-yl)-N-(4-fluoro-3-trifluoromethyl-benzyl)-4-carbomethoxy-benzenesulfonamide], the half-inhibitory concentration (IC50) stood at 23 nM and the inhibition at 0.2 µM is 97%.

As for `O=S(=O)(CC(F)(F)F)N(Cc1ccc(F)c(C(F)(F)F)c1)c1cc2ccccc2s1` [Compound 697, N-(Benzo[b]thiophen-2-yl)-N-(4-fluoro-3-trifluoromethyl-benzyl)-2,2,2-trifluoro-ethanesulfonamide], the 50% inhibitory concentration (IC50) was 64 nM and the inhibition at 0.2 µM was determined as 92%.

Take `O=C(O)c1ccc(S(=O)(=O)N(Cc2ccc(F)c(C(F)(F)F)c2)c2sc3ccccc3c2C2CCC2)cc1` [Compound 698, N-(3-Cyclobutyl-benzo[b]thiophen-2-yl)-N-(4-fluoro-3-trifluoromethyl-benzyl)-4-carboxy-benzenesulfonamide]: the IC50 came out at 2 nM and the inhibition at 0.2 µM is 102%.

As for `Cc1c(N(Cc2ccc(F)c(C(F)(F)F)c2)S(=O)(=O)CCCO)sc2ccccc12` [Compound 699, N-(4-Fluoro-3-trifluoromethyl-benzyl)-N-(3-methyl-benzo[b]thiophen-2-yl)-3-hydroxy-propanesulfonamide], the concentration for half-maximal inhibition (IC50) was 6 nM and the inhibition at 0.2 µM was 103%.

Turning to `Cc1c(N(Cc2ccc(OC(F)(F)F)cc2)S(=O)(=O)c2ccc(-n3ccnc3CN(C)C)cc2)sc2ccccc12` [Compound 701, 4-(2-Dimethylaminomethyl-imidazol-1-yl)-N-(3-methyl-benzo[b]thiophen-2-yl)-N-(4-trifluoromethoxy-benzyl)-benzenesulfonamide], the IC50 was 32.5 nM and the inhibition at 0.2 µM is 95%.

Take `O=S(=O)(CC(F)(F)F)N(Cc1ccc(F)c(C(F)(F)F)c1)c1sc2ccccc2c1Br` [Compound 702, N-(3-Bromo-benzo[b]thiophen-2-yl)-N-(4-fluoro-3-trifluoromethyl-benzyl)-2,2,2-trifluoro-ethanesulfonamide]: the IC50 came out at 23 nM and the inhibition at 0.2 µM is 99%.

In the case of `O=S(=O)(CC(F)(F)F)N(Cc1ccc(F)c(C(F)(F)F)c1)c1sc2ccccc2c1Cl` [Compound 703, N-(3-Chloro-benzo[b]thiophen-2-yl)-N-(4-fluoro-3-trifluoromethyl-benzyl)-2,2,2-trifluoro-ethanesulfonamide], the IC50 was 51 nM and the inhibition at 0.2 µM came out at 80%.

For `O=S(=O)(CC(F)(F)F)N(Cc1ccc(F)c(C(F)(F)F)c1)c1sc2ccccc2c1CO` [Compound 704, N-(3-Hydroxymethyl-benzo[b]thiophen-2-yl)-N-(4-fluoro-3-trifluoromethyl-benzyl)-2,2,2-trifluoro-ethanesulfonamide], the inhibition at 0.2 µM turned out to be 102%.

Take `CNS(=O)(=O)N(Cc1ccc(F)c(C(F)(F)F)c1)c1sc2ccccc2c1Br` [Compound 705, N-(3-Bromo-benzo[b]thiophen-2-yl)-N-(4-fluoro-3-trifluoromethyl-benzyl)-N′-methyl-sulfamide]: the IC50 was determined as 19 nM and the inhibition at 0.2 µM was 101%.

Take `O=c1[nH]c(-c2ccc(S(=O)(=O)N(CCC3CC3)c3sc4ccccc4c3Br)cc2)ns1` [Compound 706, N-(3-Bromo-benzo[b]thiophen-2-yl)-N-(cyclopropyl-ethyl)-4-(5-oxo-4,5-dihydro-[1,2,4]thiadiazol-3-yl)-benzenesulfonamide]: the IC50 turned out to be 14 nM and the inhibition at 0.2 µM amounted to 102%.

With `O=C(O)c1ccc(S(=O)(=O)N(CCCCC(F)(F)F)c2sc3ccccc3c2Br)c(F)c1` [Compound 707, N-(3-Bromo-benzo[b]thiophen-2-yl)-N-(5,5,5-trifluoro-pentyl)-2-fluoro-4-carboxy-benzenesulfonamide], the IC50 amounted to 3 nM and the inhibition at 0.2 µM amounted to 102%.

Turning to `O=c1[nH]c(-c2ccc(S(=O)(=O)N(CCC(F)(F)F)c3sc4ccccc4c3Br)cc2)ns1` [Compound 708, N-(3-Bromo-benzo[b]thiophen-2-yl)-N-(3,3,3-trifluoro-propyl)-4-(5-oxo-4,5-dihydro-[1,2,4]thiadiazol-3-yl)-benzenesulfonamide], the IC50 amounted to 13 nM and the inhibition at 0.2 µM amounted to 102%.

Turning to `O=C(O)c1ccc(S(=O)(=O)N(CCC2CC2)c2sc3ccccc3c2Br)c(F)c1` [Compound 709, N-(3-Bromo-benzo[b]thiophen-2-yl)-N-(2-cyclopropyl-ethyl)-2-fluoro-4-carboxy-benzenesulfonamide], the IC50 worked out at 6 nM and the inhibition at 0.2 µM was found to be 102%.

Regarding `O=C(O)c1ccc(S(=O)(=O)N(CCC(F)(F)F)c2sc3ccccc3c2Br)c(F)c1` [Compound 710, N-(3-Bromo-benzo[b]thiophen-2-yl)-N-(3,3,3-trifluoro-propyl)-2-fluoro-4-carboxy-benzenesulfonamide], the IC50 worked out at 7 nM and the inhibition at 0.2 µM was 102%.
